The text below walks through data of patent US9012481B2, “Benzoarylureido compounds, and composition for prevention or treatment of neurodegenerative brain disease containing the same” (Korea Institute of Science and Technology, priority 2009, dated 2015).

By melting point is commonly meant the temperature, or range, at which the solid turns liquid. Usually viability stands for a read-out of living cells in per cent, often relative to untreated cells.

One series relates to BV-2 cells. Put plainly: Cell viability (MTT analysis) of beta-amyloid treated BV-2 cells. The class given is cell-based. To be noted: Mus musculus, BV-2 cells, average of three experiments; for viability at 0.1 µM: compound 100 nM for 24 hours after 50 μM beta-amyloid for 2 hours; for viability at 1 µM: compound 1000 nM for 24 hours after 50 μM beta-amyloid for 2 hours; for viability at 0.5 µM: BV-2, read-out: cell viability by MTT analysis, compound 500 nM for 24 hours after 50 μM beta-amyloid for 2 hours. The procedure:
Beta-amyloid (Aβ25-35, Sigma Chemical Co., St. Louis, Mo., USA) was diluted with aseptic desalted water and preservative solution (1 mM, GIBCO), and kept in aliquots at −70° C. To the treatment of beta-amyloid, beta-amyloid preservative solution was diluted to desired concentrations in a treatment medium (DMEM, GIBCO). The reagents were newly provided as a preservative solution (10 mM) under DMSO (dimethylsulfoxide), and diluted in treatment medium to desired concentrations.
BV-2 microglia cells (allotted from Pharmacology Division of Ajou University) were cultivated in DMEM (Dulbecco's Modified Eagle's Medium) supplemented with 5% fetal bovine serum (Invitrogen, Carlsbad, Calif., USA), sou/Ml penicillin (Invitrogen, Carlsbad, Calif., USA), and 50 μg/Ml streptomycin (Invitrogen, Carlsbad, Calif., USA) under the atmosphere condition with 5% CO2 and 95% air at 37° C. The medium was replaced once a day, the cells were plate-cultured in a density according to the scale of each experiment.
BV-2 cells were plate-cultured in 96-well plate at the density of 5×10^4, the cell viability was measured according to a conventional MTT analysis method and lactate dehydrogenase (LDH) analysis method. The MTT analysis depends on the metabolism ability of mitochondria of living cell, and reflexes intracellular redox states. The cultured cells were treated with MTT a solution (final concentration: 1 mg/Ml) for 4 hours. Deep blue formazan crystal generated in the original cells was dissolved in a lysis buffer, and then, the absorbance was detected at 595 nm with microplate reader. The LDH activity released from the culture medium was detected, which was evaluated as a cell death index. The culture medium was added to a reagent (test, Sigma Chemical Co, St. Louis, Mo., USA) containing sodium lactate, NADH and sodium pyruvate, and then, the absorbance reduction by NADH at 340 nm was measured. The result was calculated assuming that the LDH activity in homogenate solution of the non-treated control is 100%.
[…] For microscope analysis, BV-2 cells were used in 6-well plate at the density of 5×10^5 cells/well, for MTT analysis, BV-2 cells were used in 96-well plate at the density of 5×10^4 cells/well.
The obtained prevention effects of KHG25967 compound on toxicity induced by beta-amyloid in BV-2 cells were FIGS. 1A and 1b.
For MTT analysis, BV-2 cells were used on 96-well plate in the density of 5×10^4 cells/well. The quantitative analysis results (unit: %) for the cell viability obtained by MTT analysis were shown in Table 2, wherein the values are represented by the average of three experiments per each concentration.

The mark [1] stands for this setting: compound 50 μM for 24 hours after 50 μM beta-amyloid for 2 hours, read-out: cell viability by MTT analysis.

Where two headings read alike, the source gives them in different places.

`Cc1ccc(CNC(=O)Nc2nc3ccccc3s2)cc1` [KHG25948, 1-(benzo[d]thiazole-2-yl)-3-(4-methylbenzyl)urea] returned a melting point of 257 °C. Further, the viability at 50 µM in the series on BV-2 cells (setting [1]) is 30%.

As for `CCCCOC(=O)CNC(=O)Nc1nc2ccccc2s1` [KHG25954, butyl 2-(3-benzo[d]thiazole-2-ylureido)acetate], the melting point was 294 °C. The viability at 50 µM in the series on BV-2 cells (setting [1]) was 48%.

Compound `CCOC(=O)CNC(=O)Nc1nc2ccc(F)cc2s1` [KHG25956, ethyl 2-(3-(6-fluorobenzo[d]thiazole-2-yl)ureido)acetate] showed a melting point of 291 °C. Moreover, the viability at 50 µM in the series with BV-2 cells (setting [1]) is 36%.

As to `CCOC(=O)CNC(=O)Nc1nc2ccc(Cl)cc2o1` [KHG25989, ethyl 2-(3-(6-chlorobenzo[d]oxazole-2-yl)ureido)acetate], the viability at 50 µM with BV-2 cells (setting [1]) was 55%.

As to `Cc1ccc(CNC(=O)Nc2nc3ccc(Cl)cc3o2)cc1` [KHG25990], the viability at 50 µM in the series with BV-2 cells (setting [1]) was 37%.

The compound `CCOC(=O)CCCNC(=O)Nc1nc2ccccc2s1` [KHG26004, ethyl 4-(3-benzo[d]thiazole-2-ylureido)butanoate] returned a melting point of 278 °C. Further, the viability at 50 µM with BV-2 cells (setting [1]) stood at 37%.

`CCOC(=O)CCNC(=O)Nc1nc2ccccc2s1` [KHG26005, ethyl 3-(3-benzo[d]thiazole-2-ylureido)propanoate]: the melting point came to 256 °C. In addition, the viability at 50 µM in the series with BV-2 cells (setting [1]) was determined as 40%.

As for `CCOC(=O)CNC(=O)Nc1nc2ccc(OC)cc2s1` [KHG26019, ethyl 2-(3-(6-methoxybenzo[d]thiazole-2-yl)ureido)acetate], the melting point stood at 281.9 °C. The viability at 50 µM with BV-2 cells (setting [1]) was 47%.

For `O=C(O)CCCNC(=O)Nc1nc2ccccc2s1` [KHG26025, 4-(3-benzo[d]thiazole-2-ylureido)butanoic acid], the melting point is 210 °C. Moreover, in the series on BV-2 cells, the viability at 0.1 µM came out at 73% and the viability at 1 µM stood at 89%. In addition, in the series with BV-2 cells (setting [1]), the viability at 50 µM was 90%.

Take `O=C(O)CCNC(=O)Nc1nc2ccccc2s1` [KHG26026, 3-(3-benzo[d]thiazole-2-ylureido)propanic acid]: the melting point was found to be 243 °C. For the same compound, in the series with BV-2 cells, the viability at 0.1 µM stood at 66% and the viability at 1 µM came to 85%. Also, in the series with BV-2 cells (setting [1]), the viability at 50 µM was determined as 82%.

The compound `CCOC(=O)CCNC(=O)Nc1nc2ccccc2[nH]1` [KHG26027, ethyl 3-(3-1H-benzo[d]imidazole-2-ylureido)propanoate] returned a melting point of 264 °C. For the same compound, the viability at 50 µM in the series on BV-2 cells (setting [1]) is 45%.

`CCOC(=O)CCCNC(=O)Nc1nc2ccccc2[nH]1` [KHG26028, ethyl 4-(3-1H-benzo[d]imidazole-2-ylureido)butanoate] displayed a melting point of 277 °C. Further, in the series with BV-2 cells (setting [1]), the viability at 50 µM worked out at 34%.

The compound `CCOC(=O)CNC(=O)Nc1nc2ccccc2n1C` [KHG26029, ethyl 2-(3-(1-methyl-1H-benzo[d]imidazole-2-yl)ureido)acetate] returned a melting point of 157 °C. Besides, in the series on BV-2 cells, the viability at 0.1 µM came to 86% and the viability at 1 µM was found to be 73%. In addition, the viability at 50 µM in the series with BV-2 cells (setting [1]) was found to be 70%.

For `CCOC(=O)CCNC(=O)Nc1nc2ccccc2n1C` [KHG26030, ethyl 3-(3-(1-methyl-1H-benzo[d]imidazole-2-yl)ureido)propanoate], the melting point was found to be 105 °C. Besides, in the series on BV-2 cells, the viability at 0.1 µM turned out to be 60% and the viability at 1 µM was 76%. The viability at 50 µM in the series on BV-2 cells (setting [1]) worked out at 75%.

In the case of `CCOC(=O)CCCNC(=O)Nc1nc2ccccc2n1C` [KHG26031, ethyl 4-(3-(1-methyl-1H-benzo[d]imidazole-2-yl)ureido)butanoate], the melting point turned out to be 81 °C. In addition, the viability at 50 µM in the series on BV-2 cells (setting [1]) was found to be 56%.

As to `O=C(O)CNC(=O)Nc1nc2ccccc2s1` [KHG26096, potassium 2-(3-benzo[d]thiazole-2-ylureido)acetate], the viability at 0.5 µM with BV-2 cells turned out to be 72%.

In turn, `Cn1c(NC(=O)NCC(=O)[O-])nc2ccccc21.[K+]` [KHG26172, potassium 2-(3-(1-methyl-1H-benzo[d]imidazole-2-yl)ureido)acetate] gave a melting point of 229 °C. Moreover, the viability at 0.5 µM in the series on BV-2 cells was 68%.

In the case of `COc1ccc2nc(NC(=O)NCC(=O)O)sc2c1` [KHG26175, potassium 2-(3-(6-methoxybenzo[d]thiazole-2-yl)ureido)acetate], the viability at 0.5 µM in the series with BV-2 cells was 76%.

The compound `O=C([O-])CNC(=O)Nc1nc2ccc(Cl)cc2s1.[K+]` [KHG26177, potassium 2-(3-(6-chlorobenzo[d]thiazole-2-yl)ureido)acetate] had a melting point of 237 °C. Further, the viability at 0.5 µM in the series on BV-2 cells came to 62%.

`O=C([O-])CNC(=O)Nc1nc2c(Cl)cccc2s1.[K+]` [KHG26178, potassium 2-(3-(4-chlorobenzo[d]thiazole-2-yl)ureido)acetate] gave a melting point of 259 °C. For the same compound, the viability at 0.5 µM in the series on BV-2 cells turned out to be 59%.

For the compound `Cn1c(NC(=O)NCCC(=O)O)nc2ccccc21` [KHG26222, potassium 3-(3-(1-methyl-1H-benzo[d]imidazole-2-yl)ureido)propanoate], the viability at 0.5 µM with BV-2 cells turned out to be 33%.

As to `CCNC(=O)Nc1nc2ccccc2s1` [KHG26332, 1-(benzo[d]thiazole-2-yl)-3-ethylurea], the viability at 50 µM with BV-2 cells (BV-2, read-out: cell viability by MTT analysis, compound 50 μM for 24 hours after 50 μM beta-amyloid for 2 hours) is 18%.

On to `COc1ccc2nc(NC(=O)NCC(=O)O)sc2c1` [KHG26346, 2-(3-(6-methoxybenzo[d]thiazole-2-yl)ureido)acetic acid], for which the melting point came to 198.3 °C.

`CCOC(=O)CNC(=O)Nc1nc2ccc(OCC)cc2s1` [KHG26347, ethyl 2-(3-(6-ethoxybenzo[d]thiazole-2-yl)ureido)acetate] gave a melting point of 264 °C.

As to `CCOc1ccc2nc(NC(=O)NCC(=O)O)sc2c1` [KHG26348, 2-(3-(6-ethoxybenzo[d]thiazole-2-yl)ureido)acetic acid], the melting point stood at 197 °C.

In turn, `CCOC(=O)CNC(=O)Nc1nc2ccc(Cl)cc2s1` [KHG26349, ethyl 2-(3-(6-chlorobenzo[d]thiazole-2-yl)ureido)acetate] came in with a melting point of 295 °C.

As to `O=C(O)CNC(=O)Nc1nc2ccc(Cl)cc2s1` [KHG26350, 2-(3-(6-chlorobenzo[d]thiazole-2-yl)ureido)acetic acid], the melting point is 216 °C.

In the case of `CCOC(=O)CNC(=O)Nc1nc2c(Cl)cccc2s1` [KHG26351, ethyl 2-(3-(4-chlorobenzo[d]thiazole-2-yl)ureido)acetate], the melting point turned out to be 213 °C.

`O=C(O)CNC(=O)Nc1nc2c(Cl)cccc2s1` [KHG26352, 2-(3-(4-chlorobenzo[d]thiazole-2-yl)ureido)acetic acid] displayed a melting point of 198 °C.

Consider `CCOC(=O)CNC(=O)Nc1nc2cc(C)c(C)cc2s1` [KHG26353, ethyl 2-(3-(5,6-dimethylbenzo[d]thiazole-2-yl)ureido)acetate], for which the melting point was found to be 268 °C.

`Cc1cc2nc(NC(=O)NCC(=O)O)sc2cc1C` [KHG26354, 2-(3-(5,6-dimethylbenzo[d]thiazole-2-yl)ureido)acetic acid] displayed a melting point of 198 °C.

For the compound `Cc1ccc2nc(NC(=O)NCC(=O)O)sc2c1` [KHG26355, 2-(3-(6-methylbenzo[d]thiazole-2-yl)ureido)acetic acid], the melting point is 201 °C.

`Cc1cccc2sc(NC(=O)NCC(=O)O)nc12` [KHG26356, 2-(3-(4-methylbenzo[d]thiazole-2-yl)ureido)acetic acid] registered a melting point of 203 °C.

Consider `Cn1c(NC(=O)NCCC(=O)O)nc2ccccc21` [KHG26357, 3-(3-(1-methyl-1H-benzo[d]imidazole-2-yl)ureido)propane acid], for which the melting point turned out to be 237 °C.

For `Cn1c(NC(=O)NCCCC(=O)O)nc2ccccc21` [KHG26358, 4-(3-(1-methyl-1H-benzo[d]imidazole-2-yl)ureido)butanoic acid], the melting point is 197 °C.
